This note sets out measurements from PubChem BioAssay (NCI).

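Method: 48-hour compound exposure of cells in 96-well plates, five concentrations, linear interpolation of endpoints. At the GI50, growth is halved. Definition used: TGI = concentration required for complete inhibition of growth.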

What all share (assay): NCI anticancer screen, dose series, 48 h
Experiment [1] has as its system NCI/ADR-RES ovarian.
Experiment [2] concerns UO-31 renal.
In experiment [3] the test system is SR leukemia.
The subject of experiment [4] is T-47D breast.
Experiment [5] relates to HCC-2998 colon.
Experiment [6] deals with SW-620 colon.
Experiment [7] deals with NCI-H23 lung.
Experiment [8] relates to HS 578T breast.
Experiment [9] concerns SK-OV-3 ovarian.
In experiment [10] the test system is SF-268 CNS.

In the case of `COC1CC(OC2OC(CO)C(O)C(O)C2O)/C(=C\C#N)C(O)C1OC` (stereo not given), the TGI in [1], in [2], in experiment [3], in experiment [4], in experiment [5] and in experiment [6] was more than 100 µM throughout. Further, the TGI in experiment [7], in experiment [8], in [9] and in [10] was more than 100 µM in each case.
Consider `CC(C)(O)Cn1c(=O)c(Oc2ccc(F)cc2F)cc2cnc(NC3CCOCC3)nc21`, for which the GI50 in experiment [1], in experiment [2], in experiment [3], in experiment [4], in experiment [5] and in [6] was more than 25 µM each time. Moreover, the GI50 in [7], in [8], in [9] and in experiment [10] was more than 25 µM in each case. The TGI in [1], in experiment [2], in experiment [3], in experiment [4], in experiment [5] and in experiment [6] was more than 25 µM throughout. Also, the TGI in experiment [7], in [8], in [9] and in [10] was more than 25 µM each time.
Consider `O=P(O)(O)OC1C(OP(=O)(O)O)C(OP(=O)(O)O)C(OP(=O)(O)O)C(OP(=O)(O)O)C1OP(=O)(O)O` (stereo not given), for which the GI50 is more than 2000 µM in [1]; more than 2000 µM in experiment [2]; more than 1780 µM in [3]; more than 2000 µM in experiment [4]; more than 2000 µM in experiment [5]; more than 2000 µM in experiment [6]. Moreover, the GI50 in experiment [7], in experiment [8], in experiment [9] and in experiment [10] was more than 2000 µM each time. For the same compound, the TGI in [1], in experiment [2], in experiment [3], in experiment [4], in experiment [5] and in experiment [6] was more than 2000 µM each time. Further, the TGI in [7], in experiment [8], in experiment [9] and in [10] was more than 2000 µM in each case.
With `C=C1C(=O)OC(CCCCCCCC)C1C(=O)O` (stereo not given), the GI50 in [1] was 21.6 µM; in experiment [2], 11.7 µM; in experiment [3] it was 5.57 µM; in experiment [4], 12.3 µM; in experiment [5], 17.5 µM; in [6], 15.2 µM. Besides, the GI50 in [7] is 14.2 µM; in experiment [8] it was 17.3 µM; in experiment [9], 34.3 µM; in [10], 19.5 µM. Moreover, the TGI in experiment [1] stood at 59.7 µM; in experiment [2], 25.6 µM; in experiment [3] it was 44.9 µM; in experiment [4], 30.6 µM; in experiment [5] it was 31.4 µM; in [6] it was 30.7 µM. For the same compound, the TGI in experiment [7] was 29.2 µM; in experiment [8], more than 86.6 µM; in experiment [9], more than 77.9 µM; in experiment [10], 39.6 µM.
As for `O=C(Nc1ccc(Cl)c(Cl)c1)Nc1ccc(Cl)c([N+](=O)[O-])c1`, the GI50 is 1.02 µM in experiment [1]; 0.83 µM in experiment [2]; 2.58 µM in experiment [3]; 0.729 µM in experiment [4]; 1.22 µM in experiment [5]; 1.1 µM in experiment [6]. In addition, the GI50 in experiment [7] was 0.698 µM; in experiment [8] it was 3.65 µM; in experiment [9], 2.01 µM; in [10], 1.76 µM. In addition, the TGI in experiment [1] is 6.09 µM; in [2] it was 2.92 µM; in [3], more than 25 µM; in experiment [4], 2.83 µM; in experiment [5] it was 4.58 µM; in experiment [6] it was 4.23 µM. In addition, the TGI is 2.69 µM in experiment [7], 16.1 µM in experiment [8], 5.89 µM in experiment [9] and 6.84 µM in experiment [10].
Take `CC/C=C/[C@@H]1C=C[C@@H]2CCC[C@H]2[C@@H]1CC[C@H](O)[C@H](C)N`: the GI50 is 1.97 µM in experiment [1]; 1.77 µM in [2]; 1.39 µM in [3]; 1.52 µM in experiment [4]; 1.42 µM in [5]; 1.64 µM in experiment [6]. In addition, the GI50 is 1.78 µM in experiment [7], 1.43 µM in experiment [8], 1.69 µM in experiment [9] and 1.71 µM in experiment [10]. The TGI in experiment [1] is 4.4 µM; in [2] it was 4.91 µM; in [3] it was 3 µM; in [4], 3.3 µM; in experiment [5], 2.74 µM; in experiment [6], 3 µM. Moreover, the TGI turned out to be 3.98 µM in experiment [7], 3.15 µM in experiment [8], 4.15 µM in [9] and 3.42 µM in experiment [10].
Consider `O=C1CCC/C=C\C[C@H]2C=C(Cl)C(=O)/C2=C/C[C@H](CCCCC(F)(F)F)OC(=O)CCC/C=C\C[C@H]2C=C(Cl)C(=O)/C2=C/C[C@H](CCCCC(F)(F)F)O1`, for which the GI50 in [1] is 1.57 µM; in experiment [2] it was 0.133 µM; in [3], 0.198 µM; in experiment [4], 0.204 µM; in experiment [5], 0.215 µM; in [6] it was 0.237 µM. Moreover, the GI50 was 0.236 µM in experiment [7], 0.267 µM in [8], 1.72 µM in experiment [9] and 0.241 µM in experiment [10]. The TGI came to 7.14 µM in experiment [1]; 0.281 µM in experiment [2]; 0.748 µM in experiment [3]; 1.16 µM in experiment [4]; 0.64 µM in experiment [5]; 0.659 µM in experiment [6]. The TGI came to 0.868 µM in experiment [7], 7.5 µM in [8], 5.17 µM in experiment [9] and 1.38 µM in experiment [10].
